{"source": "patent US10792324B2", "about": "“Compositions and methods for the treatment of orthopedic ailments” (K.L.R.M., LLC, priority 2016, dated 2020)", "key": {"femur fracture [1]": {"system": "femur fracture", "test": "Biomechanical evaluation (torsion to failure) of healing femur fracture", "format": "in vivo, rat", "protocol": "As briefly mentioned above, efficacy of the present nutraceutical composition was tested. Fifty-eight male Sprague-Dawley rats (10 weeks old, body weight (BW): 344±11 g) were used for this study, which was approved by the Institutional Animal Care and Use Committee of the Charles R. Drew University of Medicine and Science. The rats were housed for one week prior to experimental procedures to permit acclimatization and then randomly assigned to three groups. The control group (n=19 rats) received 0.2 ml of vehicle composed of 10% dimethyl sulfoxide (DMSO), peanut butter and water by retro-lingual administration. The tadalafil group (n=20 rats) was given a daily oral dose of 2.0 mg/kg body weight (BW) of the PDE5 inhibitor, tadalafil (Eli Lilly, Indianapolis, Ind.), mixed with vehicle. […] The COMB-4 group (Naturex, […]=19 rats), that is, the group receiving the nutraceutical composition in accordance with the present invention, received a combination of Muira puama (45 mg/kg body weight BW), Paullinia cupana (45 mg/kg BW), ginger (45 mg/kg BW) and L-citrulline (133 mg/kg BW) dissolved in vehicle. The appropriate rat dose of each of the four components of COMB-4 was calculated based on the equivalent recommended human daily dose as previously reported. See International Patent Publication Number WO 2012/067745 A 1 for more details on the ingredients in COMB-4, ranges of ingredients, and the beneficial effects thereof in treating Erectile Dysfunction and cardiovascular disease. All animals received the vehicle only for the three days prior to surgery to get the animals adapted to the taste, and began receiving either their respectively assigned control or experimental daily dose of tadalafil or COMB-4 on the same day right after the fracture (day 0). All surgeries were performed by one orthopedic surgeon who was blinded to the rats' experimental assignment. Anesthesia was induced with 3% isoflurane and maintained with 2.5% isoflurane throughout the surgery. All rats received subcutaneous injections of buprenorphine 0.05 mg/kg body weight for pre- and post-operative pain control. Each rat then underwent a unilateral femur fracture with internal fixation. […] The underlying fascia was incised at the medial patellar tendon border and the patella was dislocated laterally. The trochlea was opened with a 1.0 mm drill bit and the intramedullary canal and greater trochanter were […] 21-3 gauge hypodermic needle. The intramedullary canal was sequentially […] 18-gauge needle, and the epicondyle was further opened with a 16-gauge needle. The femoral shaft was accessed by sweeping the vastus medialis laterally. A cat claw scissors (Petco, San Diego, Calif.) placed at the junction of the middle and distal one-third of the femoral shaft was used to make a transverse fracture. A randomizer table was used to determine laterality of the osteotomy. While maintaining control of both fracture fragments, a titanium compression intramedullary screw ([…], Davos, Switzerland) was applied in a retrograde manner while directly visualizing the fracture reduction. […] The fascia and skin were closed in two layers utilizing 4-0 Vicryl (Ethicon Inc., Somerville, N.J.) and VetBond skin glue (3M, St. Paul, Minn.). […] Unprotected weight bearing was permitted immediately postoperatively, and on day 14, 5 rats from each group were euthanized using inhalational CO2 and femora were harvested for qCT (quantitative computerized tomography) and histological evaluation. […]"}, "femur fracture [2]": {"system": "femur fracture", "test": "Callus development analysis via qCT after femur fracture", "format": "in vivo, rat", "conditions": "osteotomy site", "protocol": "As briefly mentioned above, efficacy of the present nutraceutical composition was tested. Fifty-eight male Sprague-Dawley rats (10 weeks old, body weight (BW): 344±11 g) were used for this study, which was approved by the Institutional Animal Care and Use Committee of the Charles R. Drew University of Medicine and Science. The rats were housed for one week prior to experimental procedures to permit acclimatization and then randomly assigned to three groups. The control group (n=19 rats) received 0.2 ml of vehicle composed of 10% dimethyl sulfoxide (DMSO), peanut butter and water by retro-lingual administration. The tadalafil group (n=20 rats) was given a daily oral dose of 2.0 mg/kg body weight (BW) of the PDE5 inhibitor, tadalafil (Eli Lilly, Indianapolis, Ind.), mixed with vehicle. […] The COMB-4 group (Naturex, […]=19 rats), that is, the group receiving the nutraceutical composition in accordance with the present invention, received a combination of Muira puama (45 mg/kg body weight BW), Paullinia cupana (45 mg/kg BW), ginger (45 mg/kg BW) and L-citrulline (133 mg/kg BW) dissolved in vehicle. The appropriate rat dose of each of the four components of COMB-4 was calculated based on the equivalent recommended human daily dose as previously reported. See International Patent Publication Number WO 2012/067745 A 1 for more details on the ingredients in COMB-4, ranges of ingredients, and the beneficial effects thereof in treating Erectile Dysfunction and cardiovascular disease. All animals received the vehicle only for the three days prior to surgery to get the animals adapted to the taste, and began receiving either their respectively assigned control or experimental daily dose of tadalafil or COMB-4 on the same day right after the fracture (day 0). All surgeries were performed by one orthopedic surgeon who was blinded to the rats' experimental assignment. Anesthesia was induced with 3% isoflurane and maintained with 2.5% isoflurane throughout the surgery. All rats received subcutaneous injections of buprenorphine 0.05 mg/kg body weight for pre- and post-operative pain control. Each rat then underwent a unilateral femur fracture with internal fixation. […] The underlying fascia was incised at the medial patellar tendon border and the patella was dislocated laterally. The trochlea was opened with a 1.0 mm drill bit and the intramedullary canal and greater trochanter were […] 21-3 gauge hypodermic needle. The intramedullary canal was sequentially […] 18-gauge needle, and the epicondyle was further opened with a 16-gauge needle. The femoral shaft was accessed by sweeping the vastus medialis laterally. A cat claw scissors (Petco, San Diego, Calif.) placed at the junction of the middle and distal one-third of the femoral shaft was used to make a transverse fracture. A randomizer table was used to determine laterality of the osteotomy. While maintaining control of both fracture fragments, a titanium compression intramedullary screw ([…], Davos, Switzerland) was applied in a retrograde manner while directly visualizing the fracture reduction. […] The fascia and skin were closed in two layers utilizing 4-0 Vicryl (Ethicon Inc., Somerville, N.J.) and VetBond skin glue (3M, St. Paul, Minn.). A small amount of triple antibiotic ointment ([…].) was applied to the skin. Range of motion at the hip and knee was performed to ensure there was no penetration of the screw proximally and that the patella was adequately tracking. Unprotected weight bearing was permitted immediately postoperatively, and on day 14, 5 rats from each group were euthanized using inhalational CO2 and femora were harvested for qCT (quantitative computerized tomography) and histological evaluation. On day 42, fifteen (15) rats from each group were euthanized for qCT and histological evaluation. The remaining rats were euthanized for biomechanical testing. Mineral Content and Callus Volume. […]"}, "[3]": {"conditions": "day 42, relative to control group"}, "[4]": {"conditions": "day 42, torsion test, mean ± S.D."}, "[5]": {"conditions": "Newly formed Total Callus (>299 mg/cm^3), Day 14, mean ± S.D."}, "[6]": {"conditions": "Newly formed Total Callus (>299 mg/cm^3), Day 42, mean ± S.D."}, "[7]": {"conditions": "Newly formed Total Callus (>500 mg/cm^3), Day 14, mean ± S.D."}, "[8]": {"conditions": "Newly formed Total Callus (>500 mg/cm^3), Day 42, mean ± S.D."}}}
{"smiles": "CN1CC(=O)N2[C@H](c3ccc4c(c3)OCO4)c3[nH]c4ccccc4c3C[C@@H]2C1=O", "note": "[Tadalafil, tadalafil]", "values": [{"measurement": "higher maximum strength (maximum torque) than control group", "setting": "femur fracture [1]; [3]", "result": 15, "unit": "%"}, {"measurement": "higher stiffness than control group", "setting": "femur fracture [1]; [3]", "result": 28, "unit": "%"}, {"measurement": "Maximum Torque", "setting": "femur fracture [1]; [4]", "result": "326.8 ± 138.0", "unit": "Nmm"}, {"measurement": "Torsional Stiffness", "setting": "femur fracture [1]; [4]", "result": "59.9 ± 31.1", "unit": "Nmm/Deg."}, {"measurement": "Fracture Repair Stage (I, II, III or IV)", "setting": "femur fracture [1]; day 42, torsion test, mean ± S.D., I = 1, II = 2, III = 3, IV = 4", "result": "2.4 ± 0.5"}, {"measurement": "Bone Density", "setting": "femur fracture [2]; [5]", "result": "458.4 ± 29.2", "unit": "mg/mL"}, {"measurement": "Callus Volume", "setting": "femur fracture [2]; [5]", "result": "44.9 ± 11.7", "unit": "mm^3"}, {"measurement": "Mineral Content", "setting": "femur fracture [2]; [5]", "result": "20.8 ± 6.3", "unit": "mg"}, {"measurement": "Bone Density", "setting": "femur fracture [2]; [6]", "result": "510.0 ± 18.9", "unit": "mg/mL"}, {"measurement": "Callus Volume", "setting": "femur fracture [2]; [6]", "result": "66.3 ± 22.3", "unit": "mm^3"}, {"measurement": "Mineral Content", "setting": "femur fracture [2]; [6]", "result": "34.1 ± 12.7", "unit": "mg"}, {"measurement": "Callus Volume", "setting": "femur fracture [2]; [7]", "result": "16.4 ± 4.7", "unit": "mm^3"}, {"measurement": "Mineral Content", "setting": "femur fracture [2]; [7]", "result": "11.0 ± 3.8", "unit": "mg"}, {"measurement": "Callus Volume", "setting": "femur fracture [2]; [8]", "result": "35.6 ± 12.6", "unit": "mm^3"}, {"measurement": "Mineral Content", "setting": "femur fracture [2]; [8]", "result": "24.1 ± 8.3", "unit": "mg"}, {"measurement": "Bone Density", "setting": "femur fracture [2]; Newly formed Total Callus, Day 14, mean ± S.D.", "result": "665.0 ± 2.0", "unit": "mg/mL"}, {"measurement": "Bone Density", "setting": "femur fracture [2]; Newly formed Total Callus, Day 42, mean ± S.D.", "result": "697.2 ± 12.4", "unit": "mg/mL"}]}
